Laboratory results: PubChem BioAssay AID1259407 (Chemical Carcinogenesis Research Information System (CCRIS), 2018)
Activity calls are given as the source filed them. No rule for the calls is given here.

Test system: CCRIS mutagenicity, Ames/micronucleus/aberration tests
Experiment: CCRIS mutagenicity studies
[1] = Test System: AMES SALMONELLA TYPHIMURIUM, Strain/Indicator: TA98, Metabolic Activation: NONE, Method: STANDARD PLATE
[2] = Test System: AMES SALMONELLA TYPHIMURIUM, Strain/Indicator: TA102, Metabolic Activation: NONE, Method: PREINCUBATION
[3] = Test System: AMES SALMONELLA TYPHIMURIUM, Strain/Indicator: TA1535, Metabolic Activation: NONE, Method: PREINCUBATION
[4] = Test System: AMES SALMONELLA TYPHIMURIUM, Strain/Indicator: TA1535, Metabolic Activation: NONE, Method: STANDARD PLATE
[5] = Test System: AMES SALMONELLA TYPHIMURIUM, Strain/Indicator: TA1537, Metabolic Activation: NONE, Method: STANDARD PLATE
[6] = Test System: AMES SALMONELLA TYPHIMURIUM, Strain/Indicator: TA100, Metabolic Activation: NONE, Method: STANDARD PLATE
[7] = Test System: AMES SALMONELLA TYPHIMURIUM, Strain/Indicator: TA98, Metabolic Activation: NONE, Method: PREINCUBATION
[8] = Test System: AMES SALMONELLA TYPHIMURIUM, Strain/Indicator: TA98, Metabolic Activation: S-9, Method: STANDARD PLATE
[9] = Test System: AMES SALMONELLA TYPHIMURIUM, Strain/Indicator: TA100, Metabolic Activation: S-9, Method: STANDARD PLATE

## O=CNc1ccc2c(c1)Cc1ccccc1-2
Test System: AMES SALMONELLA TYPHIMURIUM, Strain/Indicator: TA98, Metabolic Activation: RAT, LIVER, S-9, AROCLOR 1254, Method: STANDARD PLATE
  mutagenic call: active; positive

## C[n+]1c2ccccc2nc2ccccc21
[1]
  mutagenic call: inactive; negative
[2]
  mutagenic call: inactive; negative
Test System: AMES SALMONELLA TYPHIMURIUM, Strain/Indicator: TA102, Metabolic Activation: NONE, Method: STANDARD PLATE
  mutagenic call: inactive; negative
[3]
  mutagenic call: inactive; negative
[4]
  mutagenic call: inactive; negative
Test System: AMES SALMONELLA TYPHIMURIUM, Strain/Indicator: TA1535, Metabolic Activation: RAT, LIVER, S-9, AROCLOR 1254, Method: STANDARD PLATE
  mutagenic call: inactive; negative
[5]
  mutagenic call: active; positive
Test System: AMES SALMONELLA TYPHIMURIUM, Strain/Indicator: TA1537, Metabolic Activation: RAT, LIVER, S-9, AROCLOR 1254, Method: STANDARD PLATE
  mutagenic call: active; positive
Test System: AMES SALMONELLA TYPHIMURIUM, Strain/Indicator: TA1538, Metabolic Activation: NONE, Method: STANDARD PLATE
  mutagenic call: inactive; negative
Test System: AMES SALMONELLA TYPHIMURIUM, Strain/Indicator: TA1538, Metabolic Activation: RAT, LIVER, S-9, AROCLOR 1254, Method: STANDARD PLATE
  mutagenic call: inactive; negative
Test System: AMES SALMONELLA TYPHIMURIUM, Strain/Indicator: TA1975, Metabolic Activation: NONE, Method: PREINCUBATION
  mutagenic call: inactive; negative
Test System: AMES SALMONELLA TYPHIMURIUM, Strain/Indicator: TA2638, Metabolic Activation: NONE, Method: STANDARD PLATE
  mutagenic call: inactive; negative
Test System: AMES SALMONELLA TYPHIMURIUM, Strain/Indicator: YG3001, Metabolic Activation: NONE, Method: PREINCUBATION
  mutagenic call: inactive; negative
Test System: AMES SALMONELLA TYPHIMURIUM, Strain/Indicator: YG3002, Metabolic Activation: NONE, Method: PREINCUBATION
  mutagenic call: inactive; negative
Test System: AMES SALMONELLA TYPHIMURIUM, Strain/Indicator: YG3003, Metabolic Activation: NONE, Method: PREINCUBATION
  mutagenic call: inactive; negative
Test System: E. COLI, Strain/Indicator: WP2 (PKM101), Metabolic Activation: NONE, Method: STANDARD PLATE
  mutagenic call: inactive; negative
Test System: E. COLI, Strain/Indicator: WP2 UVRA (PKM101), Metabolic Activation: NONE, Method: STANDARD PLATE
  mutagenic call: active; positive

## O=C(OC[C@@H]1CO1)c1ccc([N+](=O)[O-])cc1
[6]
  mutagenic call: active; positive

## CCCNC(=O)NS(=O)(=O)c1ccc(Cl)cc1
End Point: IN VITRO CHROMOSOMAL ABERRATIONS, Test System: CHO CELLS, Metabolic Activation: NONE
  mutagenic call: inactive; negative
End Point: IN VITRO CHROMOSOMAL ABERRATIONS, Test System: CHO CELLS, Metabolic Activation: RAT, LIVER, S-9, AROCLOR 1254
  mutagenic call: inactive; negative
Test System: AMES SALMONELLA TYPHIMURIUM, Strain/Indicator: TA98, Metabolic Activation: HAMSTER, LIVER, S-9, AROCLOR 1254 (10%), Method: PREINCUBATION
  mutagenic call: inactive; negative
[7]
  mutagenic call: inactive; negative
Test System: AMES SALMONELLA TYPHIMURIUM, Strain/Indicator: TA98, Metabolic Activation: RAT, LIVER, S-9, AROCLOR 1254 (10%), Method: PREINCUBATION
  mutagenic call: inactive; negative
Test System: AMES SALMONELLA TYPHIMURIUM, Strain/Indicator: TA100, Metabolic Activation: HAMSTER, LIVER, S-9, AROCLOR 1254 (10%), Method: PREINCUBATION
  mutagenic call: inactive; negative
Test System: AMES SALMONELLA TYPHIMURIUM, Strain/Indicator: TA100, Metabolic Activation: NONE, Method: PREINCUBATION
  mutagenic call: inactive; negative
Test System: AMES SALMONELLA TYPHIMURIUM, Strain/Indicator: TA100, Metabolic Activation: RAT, LIVER, S-9, AROCLOR 1254 (10%), Method: PREINCUBATION
  mutagenic call: inactive; negative
Test System: AMES SALMONELLA TYPHIMURIUM, Strain/Indicator: TA1535, Metabolic Activation: HAMSTER, LIVER, S-9, AROCLOR 1254 (10%), Method: PREINCUBATION
  mutagenic call: inactive; negative
[3]
  mutagenic call: inactive; negative
Test System: AMES SALMONELLA TYPHIMURIUM, Strain/Indicator: TA1535, Metabolic Activation: RAT, LIVER, S-9, AROCLOR 1254 (10%), Method: PREINCUBATION
  mutagenic call: inactive; negative
Test System: AMES SALMONELLA TYPHIMURIUM, Strain/Indicator: TA1537, Metabolic Activation: HAMSTER, LIVER, S-9, AROCLOR 1254 (10%), Method: PREINCUBATION
  mutagenic call: inactive; negative
Test System: AMES SALMONELLA TYPHIMURIUM, Strain/Indicator: TA1537, Metabolic Activation: NONE, Method: PREINCUBATION
  mutagenic call: inactive; negative
Test System: AMES SALMONELLA TYPHIMURIUM, Strain/Indicator: TA1537, Metabolic Activation: RAT, LIVER, S-9, AROCLOR 1254 (10%), Method: PREINCUBATION
  mutagenic call: inactive; negative
Test System: MOUSE LYMPHOMA, Strain/Indicator: L5178Y (TK+/TK-), Metabolic Activation: NONE, Method: SUSPENSION/PLATE
  mutagenic call: inactive; negative
Test System: MOUSE LYMPHOMA, Strain/Indicator: L5178Y (TK+/TK-), Metabolic Activation: RAT, LIVER, S-9, AROCLOR 1254, Method: SUSPENSION/PLATE
  mutagenic call: inactive; negative

## Cc1ccc2nsc(NC(=O)C(Cl)Cl)c2c1
[1]
  mutagenic call: active; positive
[8]
  mutagenic call: active; positive
[6]
  mutagenic call: active; positive
[9]
  mutagenic call: active; positive
[4]
  mutagenic call: inactive; negative
Test System: AMES SALMONELLA TYPHIMURIUM, Strain/Indicator: TA1535, Metabolic Activation: S-9, Method: STANDARD PLATE
  mutagenic call: inactive; negative
[5]
  mutagenic call: active; positive
Test System: AMES SALMONELLA TYPHIMURIUM, Strain/Indicator: TA1537, Metabolic Activation: S-9, Method: STANDARD PLATE
  mutagenic call: active; positive

## O.O.O.[Fe].[Fe]
Test System: AMES SALMONELLA TYPHIMURIUM, Strain/Indicator: TA97, Metabolic Activation: NONE, Method: PREINCUBATION
  mutagenic call: inactive; negative
Test System: AMES SALMONELLA TYPHIMURIUM, Strain/Indicator: TA97, Metabolic Activation: RAT, LIVER, S-9, AROCLOR 1254, Method: PREINCUBATION
  mutagenic call: inactive; negative
[2]
  mutagenic call: inactive; negative
Test System: AMES SALMONELLA TYPHIMURIUM, Strain/Indicator: TA102, Metabolic Activation: RAT, LIVER, S-9, AROCLOR 1254, Method: PREINCUBATION
  mutagenic call: inactive; negative

## Nc1ncnc2c1ncn2[C@@H]1O[C@H](CO)[C@@H](O)[C@@H]1O
Test System: CHINESE HAMSTER OVARY, Strain/Indicator: CHO/6-THIOGUANINE, Metabolic Activation: NONE
  mutagenic call: active; positive

## Nc1ccc(-c2ccc(N)c(F)c2)cc1F
Test System: AMES SALMONELLA TYPHIMURIUM, Strain/Indicator: TA98(1,8-DNP6), Metabolic Activation: HAMSTER, LIVER, S-9, Method: PREINCUBATION
  mutagenic call: active; positive
Test System: AMES SALMONELLA TYPHIMURIUM, Strain/Indicator: TA98(1,8-DNP6), Metabolic Activation: NONE, Method: PREINCUBATION
  mutagenic call: active; positive
Test System: AMES SALMONELLA TYPHIMURIUM, Strain/Indicator: TA98(1,8-DNP6), Metabolic Activation: NONE, Method: STANDARD PLATE
  mutagenic call: active; positive
Test System: AMES SALMONELLA TYPHIMURIUM, Strain/Indicator: TA98(1,8-DNP6), Metabolic Activation: S-9, Method: STANDARD PLATE
  mutagenic call: active; positive
Test System: AMES SALMONELLA TYPHIMURIUM, Strain/Indicator: TA98, Metabolic Activation: HAMSTER, LIVER, S-9, Method: PREINCUBATION
  mutagenic call: active; positive
[7]
  mutagenic call: active; positive
[1]
  mutagenic call: active; positive
[8]
  mutagenic call: active; positive
[6]
  mutagenic call: inactive; negative
[9]
  mutagenic call: active; positive

## C/C=C\C1=CC(=O)[C@]23C[C@H]2C(C)(C)O[C@]3(O)C1=O
Test System: AMES SALMONELLA TYPHIMURIUM, Strain/Indicator: TA97, Metabolic Activation: NONE
  mutagenic call: inactive; negative
Test System: AMES SALMONELLA TYPHIMURIUM, Strain/Indicator: TA98, Metabolic Activation: NONE
  mutagenic call: inactive; negative
Test System: AMES SALMONELLA TYPHIMURIUM, Strain/Indicator: TA100, Metabolic Activation: NONE
  mutagenic call: active; positive
Test System: AMES SALMONELLA TYPHIMURIUM, Strain/Indicator: TA102, Metabolic Activation: NONE
  mutagenic call: active; positive
